Assay results reported in patent US11690810B2, “Combination treatment of bacterial infection” (The Chinese University of Hong Kong, priority 2018, dated 2023).

Experiments:
Assay in all cases: MIC and checkerboard (FIC) assay
CA MRSA W46 = details: W46
HA MRSA W240 = details: W240
HA MRSA W234 = details: W234
CA MRSA W114 = details: W114
[1] = system: S. aureus ATCC25923 (methicillin sensitive); details: ATCC 25293
[2] = system: clinical fusidic acid resistant MRSA strain 82356; format: cell-based, Staphylococcus aureus; details: for FIC / MIC combine: 82356
CA-MRSA strain ST30 = format: cell-based, Staphylococcus aureus; details: ST30
HA MRSA W231 = system: HA MRSA W231

Structure (SMILES): C=C(C)[C@H](CC=C(C)C)Cc1c(O)cc(OC)c(C(=O)/C=C/c2ccc(O)cc2O)c1O [Kuraridin]
- MIC alone (CA MRSA W46): 8 µg/mL
- FIC (CA MRSA W46; ECG with Kur): 0.5
- MIC combine (CA MRSA W46; ECG with Kur): 4 µg/mL
- FIC (CA MRSA W46; ECG+Kur+Van): 0.5
- MIC combine (CA MRSA W46; ECG+Kur+Van): 4 µg/mL
- MIC alone (CA MRSA W46; Table 5): 8 µg/mL
- MIC alone (HA MRSA W240): 8 µg/mL
- FIC (HA MRSA W240; ECG with Kur): 0.5
- MIC combine (HA MRSA W240; ECG with Kur): 4 µg/mL
- MIC alone (HA MRSA W234): 8 µg/mL
- FIC (HA MRSA W234; ECG with Kur): 0.5
- MIC combine (HA MRSA W234; ECG with Kur): 4 µg/mL
- MIC alone (CA MRSA W114): 8 µg/mL
- FIC (CA MRSA W114; ECG with Kur): 0.5
- MIC combine (CA MRSA W114; ECG with Kur): 4 µg/mL
- MIC alone [1]: 8 µg/mL
- FIC ([1]; ECG with Kur): 0.5
- MIC combine ([1]; ECG with Kur): 4 µg/mL
- MIC alone ([2]; 82356 (fusidic acid resistant)): 8 µg/mL
- FIC ([2]; ECG+Kur+Fus): 0.25
- MIC combine ([2]; ECG+Kur+Fus): 4 µg/mL
- FIC ([2]; ECG+Kur, no Fus): 0.5
- MIC combine ([2]; ECG+Kur, no Fus): 4 µg/mL
- MIC alone (CA-MRSA strain ST30): 8 µg/mL
- FIC (CA-MRSA strain ST30; ECG with Kur): 0.5
- MIC combine (CA-MRSA strain ST30; ECG with Kur): 4 µg/mL
- FIC (CA-MRSA strain ST30; ECG+Kur+Van): 0.125
- MIC combine (CA-MRSA strain ST30; ECG+Kur+Van): 1 µg/mL
- MIC alone (CA-MRSA strain ST30; Table 5): 8 µg/mL
- MIC alone (HA MRSA W231; W231): 4 µg/mL
- MIC alone (HA MRSA W231; W231 (gentamicin resistant)): 8 µg/mL
- FIC (HA MRSA W231; W231, ECG with Kur): 0.25
- MIC combine (HA MRSA W231; W231, ECG with Kur): 1 µg/mL
- FIC (HA MRSA W231; W231, ECG+Kur+Gen): 0.25
- MIC combine (HA MRSA W231; W231, ECG+Kur+Gen): 2 µg/mL
- FIC (HA MRSA W231; W231, ECG+Kur+Van): 0.125
- MIC combine (HA MRSA W231; W231, ECG+Kur+Van): 1 µg/mL
- FIC (HA MRSA W231; W231, ECG+Kur, no Gen): 0.25
- MIC combine (HA MRSA W231; W231, ECG+Kur, no Gen): 2 µg/mL
- MIC alone (HA MRSA W231; W231, Table 5): 8 µg/mL
